# ChEMBL document CHEMBL4007491, “Structure-based drug design of novel ASK1 inhibitors using an integrated lead optimization strategy” (Bioorg Med Chem Lett, 2017)
# Experiments:
# [1] = target: T1, CYP1A2 (Homo sapiens, UniProt P05177); test: Inhibition of CYP1A2 (unknown origin) at 10 uM relative to control; assay type: ADME
# T1 sequence (P05177 whole entry): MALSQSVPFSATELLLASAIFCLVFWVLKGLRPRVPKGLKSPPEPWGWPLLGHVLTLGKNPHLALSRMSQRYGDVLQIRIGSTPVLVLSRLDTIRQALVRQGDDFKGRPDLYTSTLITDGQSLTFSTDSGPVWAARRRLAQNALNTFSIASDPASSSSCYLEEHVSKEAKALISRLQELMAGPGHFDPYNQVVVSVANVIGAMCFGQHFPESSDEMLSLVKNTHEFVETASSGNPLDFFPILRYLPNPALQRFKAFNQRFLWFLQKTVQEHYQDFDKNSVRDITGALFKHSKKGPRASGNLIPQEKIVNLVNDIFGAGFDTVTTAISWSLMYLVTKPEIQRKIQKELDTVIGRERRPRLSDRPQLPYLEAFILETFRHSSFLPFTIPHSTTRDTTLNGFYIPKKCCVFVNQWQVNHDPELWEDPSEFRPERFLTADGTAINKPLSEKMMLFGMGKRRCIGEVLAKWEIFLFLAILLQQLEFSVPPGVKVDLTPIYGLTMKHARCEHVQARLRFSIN
# [2] = target: CYP3A4 (Homo sapiens, UniProt P08684); test: Inhibition of CYP3A4 (unknown origin) at 10 uM relative to control; assay type: ADME
# [3] = Intrinsic clearance in human liver microsomes; assay type: ADME, microsome; settings: read-out: CLH
# [4] = target: Proto-oncogene tyrosine-protein kinase receptor Ret (Homo sapiens, UniProt P07949); test: Inhibition of recombinant human GST-tagged RET cytoplasmic domain expressed in baculovirus expression system
# [5] = target: Glycogen synthase kinase-3 beta (Homo sapiens, UniProt P49841); test: Inhibition of recombinant full length human His-tagged GSK3B expressed in baculovirus expression system
# [6] = target: Macrophage-stimulating protein receptor (Homo sapiens, UniProt Q04912); test: Inhibition of recombinant human GST-tagged RON cytoplasmic domain expressed in baculovirus expression system
# [7] = target: T2, Tyrosine-protein kinase ITK/TSK (Homo sapiens, UniProt Q08881); test: Inhibition of recombinant full length human GST-tagged ITK expressed in baculovirus expression system
# T2 sequence (Q08881 whole entry): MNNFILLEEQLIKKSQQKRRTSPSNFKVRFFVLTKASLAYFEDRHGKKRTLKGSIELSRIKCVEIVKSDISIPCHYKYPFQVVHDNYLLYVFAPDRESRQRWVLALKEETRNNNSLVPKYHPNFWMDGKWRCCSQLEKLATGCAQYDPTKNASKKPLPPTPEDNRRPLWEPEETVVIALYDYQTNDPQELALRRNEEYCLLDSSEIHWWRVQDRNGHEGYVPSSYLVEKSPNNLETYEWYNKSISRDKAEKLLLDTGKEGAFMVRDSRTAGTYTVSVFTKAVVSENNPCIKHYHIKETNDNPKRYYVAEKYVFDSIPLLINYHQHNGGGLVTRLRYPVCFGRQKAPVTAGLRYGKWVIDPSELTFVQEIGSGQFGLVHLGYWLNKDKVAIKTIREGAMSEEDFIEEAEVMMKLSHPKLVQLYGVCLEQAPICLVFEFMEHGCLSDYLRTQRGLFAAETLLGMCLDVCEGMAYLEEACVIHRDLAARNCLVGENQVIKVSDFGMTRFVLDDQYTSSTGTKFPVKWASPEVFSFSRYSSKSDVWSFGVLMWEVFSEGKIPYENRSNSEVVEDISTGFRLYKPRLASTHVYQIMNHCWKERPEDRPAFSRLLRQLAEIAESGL
# [8] = target: T3, Mitogen-activated protein kinase kinase kinase 5 (Homo sapiens, UniProt Q99683); test: Inhibition of ASK1 (unknown origin) assessed as reduction in JNK phosphorylation by cell based assay
# T3 sequence (Q99683 whole entry): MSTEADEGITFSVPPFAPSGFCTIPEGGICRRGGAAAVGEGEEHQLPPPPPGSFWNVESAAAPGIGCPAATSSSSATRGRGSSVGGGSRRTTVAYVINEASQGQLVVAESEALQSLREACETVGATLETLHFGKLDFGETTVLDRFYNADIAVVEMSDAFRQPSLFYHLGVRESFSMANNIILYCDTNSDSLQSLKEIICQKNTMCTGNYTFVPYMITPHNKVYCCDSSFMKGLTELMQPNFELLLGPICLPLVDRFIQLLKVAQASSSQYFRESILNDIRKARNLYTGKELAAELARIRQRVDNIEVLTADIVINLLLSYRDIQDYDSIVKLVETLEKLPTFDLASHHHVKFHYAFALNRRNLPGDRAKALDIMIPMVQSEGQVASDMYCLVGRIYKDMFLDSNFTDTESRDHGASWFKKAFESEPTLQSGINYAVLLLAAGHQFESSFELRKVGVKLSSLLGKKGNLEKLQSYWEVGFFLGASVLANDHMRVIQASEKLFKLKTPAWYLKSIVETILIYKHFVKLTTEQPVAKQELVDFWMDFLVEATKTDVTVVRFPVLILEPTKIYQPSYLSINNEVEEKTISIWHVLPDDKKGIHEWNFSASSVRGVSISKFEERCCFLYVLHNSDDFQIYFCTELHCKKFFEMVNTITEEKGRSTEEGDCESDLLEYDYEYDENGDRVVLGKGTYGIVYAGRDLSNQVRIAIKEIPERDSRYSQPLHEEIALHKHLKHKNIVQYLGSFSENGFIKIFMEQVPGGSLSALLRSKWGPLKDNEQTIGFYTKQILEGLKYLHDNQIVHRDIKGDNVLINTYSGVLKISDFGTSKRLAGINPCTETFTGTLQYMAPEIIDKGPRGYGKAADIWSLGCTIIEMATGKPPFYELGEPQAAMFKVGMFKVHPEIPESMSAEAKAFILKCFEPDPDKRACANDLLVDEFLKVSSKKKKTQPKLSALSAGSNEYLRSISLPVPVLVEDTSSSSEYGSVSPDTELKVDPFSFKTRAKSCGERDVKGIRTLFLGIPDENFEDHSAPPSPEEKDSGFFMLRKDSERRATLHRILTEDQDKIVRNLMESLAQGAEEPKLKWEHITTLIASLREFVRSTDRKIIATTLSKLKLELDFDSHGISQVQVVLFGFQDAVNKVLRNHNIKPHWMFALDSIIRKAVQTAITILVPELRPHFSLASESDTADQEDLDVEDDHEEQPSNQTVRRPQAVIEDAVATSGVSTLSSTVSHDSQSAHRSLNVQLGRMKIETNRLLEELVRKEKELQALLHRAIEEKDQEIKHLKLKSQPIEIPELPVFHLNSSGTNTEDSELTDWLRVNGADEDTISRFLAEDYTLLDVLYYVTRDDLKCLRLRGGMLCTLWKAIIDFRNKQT
# [9] = target: Cyclin-dependent kinase 2 (Homo sapiens, UniProt P24941); test: Inhibition of CDK2 (unknown origin)
# [10] = target: CYP2C9 (Homo sapiens, UniProt P11712); test: Inhibition of CYP2C9 (unknown origin) at 10 uM relative to control; assay type: ADME
# [11] = target: Rho-associated protein kinase 1 (Homo sapiens, UniProt Q13464); test: Inhibition of recombinant human GST-tagged ROCK1 catalytic domain expressed in baculovirus expression system
# CYP3A4, sequence (P08684 whole entry): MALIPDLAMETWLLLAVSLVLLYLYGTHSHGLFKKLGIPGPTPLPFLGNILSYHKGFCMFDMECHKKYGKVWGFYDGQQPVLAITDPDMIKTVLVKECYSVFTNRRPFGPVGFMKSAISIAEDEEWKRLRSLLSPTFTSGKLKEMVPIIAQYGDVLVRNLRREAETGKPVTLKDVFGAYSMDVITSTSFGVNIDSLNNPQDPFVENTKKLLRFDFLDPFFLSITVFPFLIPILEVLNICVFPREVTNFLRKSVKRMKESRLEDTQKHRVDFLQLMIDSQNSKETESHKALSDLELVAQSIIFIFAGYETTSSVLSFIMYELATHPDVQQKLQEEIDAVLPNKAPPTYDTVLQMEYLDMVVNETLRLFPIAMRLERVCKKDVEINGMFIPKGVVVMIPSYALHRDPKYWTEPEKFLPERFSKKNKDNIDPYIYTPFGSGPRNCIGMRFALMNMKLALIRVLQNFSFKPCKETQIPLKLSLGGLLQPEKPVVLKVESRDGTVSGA
# Macrophage-stimulating protein receptor, sequence (Q04912 25-304 limits assumed): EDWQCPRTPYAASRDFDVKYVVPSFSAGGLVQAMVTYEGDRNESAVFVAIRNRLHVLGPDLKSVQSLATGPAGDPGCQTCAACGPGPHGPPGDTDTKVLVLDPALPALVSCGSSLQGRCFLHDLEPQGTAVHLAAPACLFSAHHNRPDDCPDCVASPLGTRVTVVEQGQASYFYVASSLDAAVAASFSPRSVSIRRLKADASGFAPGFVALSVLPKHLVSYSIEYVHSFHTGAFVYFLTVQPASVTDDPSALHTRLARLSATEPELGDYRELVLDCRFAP
# Macrophage-stimulating protein receptor, sequence (Q04912 310-1400 limits assumed): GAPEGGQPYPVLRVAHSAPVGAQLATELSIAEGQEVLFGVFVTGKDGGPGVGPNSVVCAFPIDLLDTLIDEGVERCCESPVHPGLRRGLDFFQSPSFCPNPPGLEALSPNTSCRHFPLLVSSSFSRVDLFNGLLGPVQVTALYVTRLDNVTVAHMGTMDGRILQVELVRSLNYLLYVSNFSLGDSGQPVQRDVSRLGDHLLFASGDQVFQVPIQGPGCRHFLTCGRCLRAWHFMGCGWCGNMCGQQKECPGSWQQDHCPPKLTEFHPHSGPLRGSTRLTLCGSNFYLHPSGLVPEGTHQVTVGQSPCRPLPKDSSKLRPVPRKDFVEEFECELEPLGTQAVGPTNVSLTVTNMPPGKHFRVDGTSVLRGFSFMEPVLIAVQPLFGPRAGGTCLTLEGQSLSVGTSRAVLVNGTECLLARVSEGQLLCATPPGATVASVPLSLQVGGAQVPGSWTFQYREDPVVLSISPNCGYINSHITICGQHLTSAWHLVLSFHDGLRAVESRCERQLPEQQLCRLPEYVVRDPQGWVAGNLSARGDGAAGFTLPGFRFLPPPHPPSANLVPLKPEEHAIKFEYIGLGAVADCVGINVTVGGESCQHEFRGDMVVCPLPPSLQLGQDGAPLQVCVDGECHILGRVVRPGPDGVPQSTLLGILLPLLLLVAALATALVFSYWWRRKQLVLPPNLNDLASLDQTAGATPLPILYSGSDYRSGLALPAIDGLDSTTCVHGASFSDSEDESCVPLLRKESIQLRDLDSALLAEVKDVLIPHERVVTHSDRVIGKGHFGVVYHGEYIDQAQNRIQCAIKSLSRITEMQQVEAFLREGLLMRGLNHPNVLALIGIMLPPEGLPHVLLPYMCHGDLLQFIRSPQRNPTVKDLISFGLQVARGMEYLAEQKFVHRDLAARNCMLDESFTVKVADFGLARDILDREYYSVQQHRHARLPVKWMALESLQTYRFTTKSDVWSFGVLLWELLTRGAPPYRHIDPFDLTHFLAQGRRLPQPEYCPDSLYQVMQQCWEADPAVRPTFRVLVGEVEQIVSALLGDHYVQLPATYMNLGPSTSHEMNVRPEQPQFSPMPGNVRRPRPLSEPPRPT
# Glycogen synthase kinase-3 beta, sequence (P49841 whole entry, the tested form may be a part): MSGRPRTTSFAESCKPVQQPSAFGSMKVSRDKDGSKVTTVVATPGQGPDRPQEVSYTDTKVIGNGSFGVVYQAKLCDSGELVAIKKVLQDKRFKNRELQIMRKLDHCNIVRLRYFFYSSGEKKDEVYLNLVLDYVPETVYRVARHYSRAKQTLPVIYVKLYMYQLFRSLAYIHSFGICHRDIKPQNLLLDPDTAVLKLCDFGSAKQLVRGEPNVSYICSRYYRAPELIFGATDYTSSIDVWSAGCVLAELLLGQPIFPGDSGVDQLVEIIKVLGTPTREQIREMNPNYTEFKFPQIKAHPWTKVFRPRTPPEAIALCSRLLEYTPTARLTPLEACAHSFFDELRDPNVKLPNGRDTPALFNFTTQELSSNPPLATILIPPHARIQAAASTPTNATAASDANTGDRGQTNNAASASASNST
# Proto-oncogene tyrosine-protein kinase receptor Ret, sequence (P07949 whole entry, the tested form may be a part): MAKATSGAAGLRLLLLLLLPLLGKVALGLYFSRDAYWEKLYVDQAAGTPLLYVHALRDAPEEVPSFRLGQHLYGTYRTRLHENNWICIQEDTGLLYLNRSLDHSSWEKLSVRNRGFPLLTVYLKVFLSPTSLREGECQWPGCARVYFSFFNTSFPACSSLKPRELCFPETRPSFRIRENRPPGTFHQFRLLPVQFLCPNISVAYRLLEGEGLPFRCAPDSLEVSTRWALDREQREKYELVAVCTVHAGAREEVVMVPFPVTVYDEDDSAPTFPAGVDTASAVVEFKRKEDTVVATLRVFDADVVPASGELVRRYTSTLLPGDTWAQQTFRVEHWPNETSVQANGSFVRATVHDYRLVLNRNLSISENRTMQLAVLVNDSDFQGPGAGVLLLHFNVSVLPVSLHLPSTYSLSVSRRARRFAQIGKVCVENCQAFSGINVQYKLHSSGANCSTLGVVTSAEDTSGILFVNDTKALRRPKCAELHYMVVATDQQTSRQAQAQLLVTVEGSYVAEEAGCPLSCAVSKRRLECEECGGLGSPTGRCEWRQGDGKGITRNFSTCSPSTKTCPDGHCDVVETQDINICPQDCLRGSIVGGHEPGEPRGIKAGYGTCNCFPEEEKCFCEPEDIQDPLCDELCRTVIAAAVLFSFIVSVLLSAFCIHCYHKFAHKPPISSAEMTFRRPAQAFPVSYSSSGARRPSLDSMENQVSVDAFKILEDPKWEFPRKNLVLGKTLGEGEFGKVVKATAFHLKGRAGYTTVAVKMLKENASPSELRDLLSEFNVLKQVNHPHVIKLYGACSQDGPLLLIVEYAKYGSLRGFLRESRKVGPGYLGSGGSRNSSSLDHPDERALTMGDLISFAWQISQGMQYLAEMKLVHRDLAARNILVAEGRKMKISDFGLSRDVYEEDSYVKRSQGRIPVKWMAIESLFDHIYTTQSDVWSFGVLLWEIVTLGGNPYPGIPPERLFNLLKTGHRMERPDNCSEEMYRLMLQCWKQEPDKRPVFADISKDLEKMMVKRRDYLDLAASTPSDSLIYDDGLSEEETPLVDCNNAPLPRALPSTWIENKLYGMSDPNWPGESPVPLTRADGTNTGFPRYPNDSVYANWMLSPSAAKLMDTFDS
# CYP2C9, sequence (P11712 whole entry, the tested form may be a part): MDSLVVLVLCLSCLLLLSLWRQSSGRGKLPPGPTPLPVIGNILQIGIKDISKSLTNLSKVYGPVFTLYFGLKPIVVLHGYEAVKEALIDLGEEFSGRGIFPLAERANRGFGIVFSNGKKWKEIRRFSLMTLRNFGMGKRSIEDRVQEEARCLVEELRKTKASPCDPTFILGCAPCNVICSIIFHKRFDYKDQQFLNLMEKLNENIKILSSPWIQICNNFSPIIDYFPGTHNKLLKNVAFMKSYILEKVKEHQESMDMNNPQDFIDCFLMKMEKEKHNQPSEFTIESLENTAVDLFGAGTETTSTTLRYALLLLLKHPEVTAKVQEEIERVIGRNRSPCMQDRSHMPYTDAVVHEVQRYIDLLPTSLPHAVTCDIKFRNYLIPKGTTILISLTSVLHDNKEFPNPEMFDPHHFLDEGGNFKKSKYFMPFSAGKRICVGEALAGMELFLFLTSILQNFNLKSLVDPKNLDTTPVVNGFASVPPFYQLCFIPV
compound,measurement,setting,value
COCCn1cc(NC(=O)c2csc(-c3nncn3C(C)C)n2)cn1,inhibition at 10 µM,[1],8%
same,inhibition at 10 µM,[2],30%
same,CLint scaled,[3],8.8 mL/min/kg
same,IC50,[4],0.617 µM
same,IC50,[5],0.457 µM
same,IC50,[6],> 20 µM
same,IC50,[7],> 20 µM
same,EC50,[8],0.06 µM
same,IC50,[9],1 µM
same,inhibition at 10 µM,[10],36%
same,IC50,[11],5.37 µM
